Experimental data reported in patent US20250129021A1, “SMALL MOLECULE PROTEIN SYNTHESIS MODULATORS” (Interdict Bio, Inc., priority 2023, published 2025).

Columns and labels:
Type in all cases: biochemical
CCND1 = test: In vitro transcription-translation (IVTT) assay, CCND1 reporter; conditions: IVTT, HeLa S3 lysate, 2 hrs at 30° C.
Outline: (§1)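 Reporter: mCherry, P2A, then 3×FLAG-target peptide-sfGFP fusion, IRES-initiated; HeLa S3 lysate IVTT; cpd dilutions 30 μM−0.1 μM half-log in 100% DMSO (dilution-plate conc); DNA added last; 2 h, 30° C; PBS quench.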

MYC = test: In vitro transcription-translation (IVTT) assay, MYC reporter; conditions: IVTT assay, HeLa S3 lysate, MYC reporter, normalized sfGFP/mCherry ratio; half-log dilutions 30 μM-0.1 μM, 2 hrs at 30° C.
Outline: as §1

CCNTB1 = test: In vitro transcription-translation (IVTT) assay, CCNTB1 reporter; conditions: HeLa S3 lysate, 2 hrs at 30° C.
Outline: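 IC50 fitted from the sfGFP/mCherry fluorescence ratio, normalized to no-drug control after no-DNA background subtraction. Reactions ran 2 h at 30° C in HeLa S3 cell lysate with reporter plasmid DNA and half-log compound titrations (30 μM−0.1 μM, in DMSO).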

MCL-1 = test: In vitro transcription-translation (IVTT) assay, MCL-1 reporter; conditions: IVTT, HeLa S3 lysate, 2 hrs at 30° C.; read-out: MCL1 IC50
Outline: as §1

Structure (SMILES) | IC50 (CCND1) [µM] | IC50 (CCNTB1) [µM] | IC50 (MCL-1) [µM] | IC50 (MYC) [µM]
CC(F)(F)c1ccc(C[C@H]2NC[C@H](O)[C@H]2OC(=O)NCC[C@@H]2CCCN2)cc1 [V191885, (2R,3S,4S)-2-{[4-(1,1-difluoroethyl)phenyl]methyl}-4-hydroxypyrrolidin-3-yl N-{2-[(2S)-pyrrolidin-2-yl]ethyl}carbamate] | 10 to 20 | < 10 | < 10 | < 10
COc1ccc(C[C@H]2NC[C@H](O)[C@H]2OC(=O)NCC[C@@H]2CCCCN2)cc1 [V191902, (2R,3S,4S)-4-hydroxy-2-[(4-methoxyphenyl)methyl]pyrrolidin-3-yl N-{2-[(2S)-piperidin-2-yl]ethyl}carbamate] | > 30 | 10 to 20 | > 30 | 10 to 20
COc1ccc(C[C@H]2NC[C@H](O)[C@H]2OC(=O)NCc2ccccc2C#N)cc1 [V191911, (2R,3S,4S)-4-hydroxy-2-[(4-methoxyphenyl)methyl]pyrrolidin-3-yl N-[(2-cyanophenyl)methyl]carbamate] | 10 to 20 | < 10 | < 10 | < 10
COc1ccc(C[C@H]2NC[C@H](O)[C@H]2OC(=O)NCC[C@@H]2CCN2)cc1 [V191920, (2R,3S,4S)-4-hydroxy-2-[(4-methoxyphenyl)methyl]pyrrolidin-3-yl N-{2-[(2S)-azetidin-2-yl]ethyl}carbamate] | < 10 | < 10 | < 10 | < 10
COc1ccc(C[C@H]2NC[C@H](O)[C@H]2OC(=O)NCC[C@@H]2CCC3(CC3)N2)cc1 [V191945, (2R,3S,4S)-4-hydroxy-2-[(4-methoxyphenyl)methyl]pyrrolidin-3-yl N-{2-[(5S)-4-azaspiro[2.4]heptan-5-yl]ethyl}carbamate] | 10 to 20 | < 10 | < 10 | < 10
COc1ccc(C[C@H]2NC[C@H](O)[C@H]2OC(=O)NCc2cccc(C(F)F)c2)cc1 [V191954, (2R,3S,4S)-4-hydroxy-2-[(4-methoxyphenyl)methyl]pyrrolidin-3-yl N-{[3-(difluoromethyl)phenyl]methyl}carbamate] | < 10 | < 10 | < 10 | < 10
COc1ccc(C[C@H]2NC[C@H](O)[C@H]2OC(=O)NCc2ccc(NS(C)(=O)=O)cc2)cc1 [V191955, (2R,3S,4S)-4-hydroxy-2-[(4-methoxyphenyl)methyl]pyrrolidin-3-yl N-[(4-methanesulfonamidophenyl)methyl]carbamate] | < 10 | < 10 | < 10 | < 10

More lines, main results first:

IC50 (CCND1) [µM] | IC50 (CCNTB1) [µM] | IC50 (MCL-1) [µM] | Structure (SMILES) | IC50 (MYC) [µM]
< 10 | < 10 | < 10 | COc1ccc(C[C@H]2NC[C@H](O)[C@H]2OC(=O)NCc2ccc(C3CNC3)cc2)cc1 [V190559, (2R,3S,4S)-4-hydroxy-2-[(4-methoxyphenyl)methyl]pyrrolidin-3-yl N-{[4-(azetidin-3-yl)phenyl]methyl}carbamate] | < 10
< 10 | < 10 | < 10 | O=C(NCC[C@@H]1CCCN1)O[C@@H]1[C@@H](O)CN[C@@H]1Cc1ccc(F)cc1 [V191886, (2R,3S,4S)-2-[(4-fluorophenyl)methyl]-4-hydroxypyrrolidin-3-yl N-{2-[(2S)-pyrrolidin-2-yl]ethyl}carbamate] | < 10
< 10 | < 10 | < 10 | COc1ccc(C[C@H]2NC[C@H](O)[C@H]2OC(=O)NCc2cccc(Cl)c2)cc1 [V191904, (2R,3S,4S)-4-hydroxy-2-[(4-methoxyphenyl)methyl]pyrrolidin-3-yl N-[(3-chlorophenyl)methyl]carbamate] | < 10
< 10 | < 10 | < 10 | COc1ccc(C[C@H]2NC[C@H](O)[C@H]2OC(=O)NCc2ccccc2Cl)cc1 [V191915, (2R,3S,4S)-4-hydroxy-2-[(4-methoxyphenyl)methyl]pyrrolidin-3-yl N-[(2-chlorophenyl)methyl]carbamate] | < 10
